Experimental data taken from patent publication US11680060B2, “Bicycloheptane pyrrolidine orexin receptor agonists” (Merck Sharp & Dohme LLC, priority 2020, dated 2023).

Target: human OX2R (Homo sapiens (Human), UniProt O43614)
Assay: IPOne (IP-1) assay in CHO cells expressing human OX2R
Type: cell-based
Conditions: for Emax: CHO, read-out: Emax (%); for IC50: CHO cells expressing human OX2R, IP-One detection, 2 hours incubation, EC50 = inflection point of four parameter logistic fit, read-out: hOX2R_IP_IC50
Summary of the method: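 CHO cells stably expressing human OX2R were stimulated with compound (10-point ½-log dilutions) for 2 h at 37 °C. IP-1 accumulation was read by HTRF (IP-One, 665/620 nm). EC50 from a four-parameter fit; % effect relative to 1 μM reference agonist control.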

[1] = percentage of mean max effect of a reference compound at 1 uM (100% activity by comparison to Orexin A), human OX2R

Chain of human OX2R (O43614 whole entry): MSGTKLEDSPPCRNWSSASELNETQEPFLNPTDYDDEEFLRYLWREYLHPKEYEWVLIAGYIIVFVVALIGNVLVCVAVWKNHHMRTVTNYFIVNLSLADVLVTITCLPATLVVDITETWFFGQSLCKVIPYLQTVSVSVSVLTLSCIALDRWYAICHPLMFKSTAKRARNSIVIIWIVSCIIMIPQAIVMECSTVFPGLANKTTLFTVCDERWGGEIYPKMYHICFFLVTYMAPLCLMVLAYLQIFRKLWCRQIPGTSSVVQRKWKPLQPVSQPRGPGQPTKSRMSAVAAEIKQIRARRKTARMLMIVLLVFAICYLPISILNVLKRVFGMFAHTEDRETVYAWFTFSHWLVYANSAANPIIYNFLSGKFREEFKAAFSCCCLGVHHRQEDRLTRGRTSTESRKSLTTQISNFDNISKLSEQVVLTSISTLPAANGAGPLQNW

SMILES	Emax [1] [%]	IC50 [nM]	Emax (%) [1] [%]
CC(C)OC(=O)N1[C@H](C)C[C@H](NS(=O)(=O)CF)[C@@H]1COC1CCC2(c3ncc(Cl)cn3)CC2C1 (stereo partly drawn) [Example 107, isopropyl (2R,3S,5R)-2-(((6-(5-chloropyrimidin-2-yl)bicyclo[4.1.0]heptan-3-yl)oxy)methyl)-3-((fluoromethyl)sulfonamido)-5-methylpyrrolidine-1-carboxylate]	104		
COC(=O)N1[C@H](C)C[C@H](NS(=O)(=O)N(C)C)[C@@H]1COC1CCC2(c3ncccn3)CC2C1 (stereo partly drawn) [Example 6, methyl (2R,3S,5R)-3-((N,N-dimethylsulfamoyl)amino)-5-methyl-2-(((6-(pyrimidin-2-yl)bicyclo[4.1.0]heptan-3-yl)oxy)methyl)pyrrolidine-1-carboxylate]	101		
COC(=O)N1[C@H](C(F)F)C[C@H](NS(=O)(=O)CF)[C@@H]1CO[C@H]1CC[C@@]2(c3ncc(Cl)cn3)C[C@H]2C1 (single isomer, unassigned) [Example 115]	103	1.1	
C[C@@H]1C[C@H](NS(C)(=O)=O)[C@H](CO[C@H]2CC[C@@]3(c4ncc(F)cn4)C[C@H]3C2)N1C(=O)OCC(C)(F)F [Example 64, 2,2-difluoropropyl (2R,3S,5R)-2-((((1S,3S,6R)-6-(5-fluoropyrimidin-2-yl)bicyclo[4.1.0]heptan-3-yl)oxy)methyl)-5-methyl-3-(methylsulfonamido)pyrrolidine-1-carboxylate]	101		
CC(C)OC(=O)N1[C@H](C)C[C@H](NS(=O)(=O)C(F)F)[C@@H]1COC1CC[C@]2(c3ncc(F)cn3)CC2C1 (stereo partly drawn) [Example 110]			100.9
COC(=O)N1[C@H](C)C[C@H](NS(C)(=O)=O)[C@@H]1COC1CCC2(c3nc4c(F)ccc(F)c4s3)CC2C1 (stereo partly drawn) [Example 71, methyl (2R,3S,5R)-2-(((6-(4,7-difluorobenzo[d]thiazol-2-yl)bicyclo[4.1.0]heptan-3-yl)oxy)methyl)-5-methyl-3-(methylsulfonamido)pyrrolidine-1-carboxylate]	57.9		
CC(C)OC(=O)N1[C@H](C)C[C@H](NS(=O)(=O)C(F)F)[C@@H]1COC1CCC2(c3ncc(Cl)cn3)CC2C1 (stereo partly drawn) [Example 82, isopropyl (2R,3S,5R)-2-(((6-(5-chloropyrimidin-2-yl)bicyclo[4.1.0]heptan-3-yl)oxy)methyl)-3-((difluoromethyl)sulfonamido)-5-methylpyrrolidine-1-carboxylate]	102		

Further lines, results first:

Emax [1] [%]	IC50 [nM]	Emax (%) [1] [%]	SMILES
101	50.7		COC(=O)N1[C@H](C)C[C@H](NS(C)(=O)=O)[C@@H]1COC1CC[C@@]2(c3nccs3)C[C@H]2C1 (single isomer, unassigned) [Example 146]
101	1.8		COC(=O)N1[C@@H]2CCC[C@@H]2[C@H](NS(C)(=O)=O)[C@@H]1CO[C@H]1CC[C@@]2(c3ncc(F)cn3)C[C@H]2C1 (single isomer, unassigned) [Example 131]
94.7	2030		COC(=O)N1CC[C@H](NS(C)(=O)=O)[C@@H]1CO[C@@H]1CC[C@]2(c3ncccn3)C[C@@H]2C1 (single isomer, unassigned) [Example 176]
108			CC(C)OC(=O)N1CCC[C@H](NS(=O)(=O)C(F)F)[C@@H]1CO[C@H]1CC[C@@]2(c3ncc(F)cn3)C[C@H]2C1 [Example 121, isopropyl (2R,3S)-3-((difluoromethyl)sulfonamido)-2-((((1S,3S,6R)-6-(5-fluoropyrimidin-2-yl)bicyclo[4.1.0]heptan-3-yl)oxy)methyl)piperidine-1-carboxylate]
101	4.4		CC(C)OC(=O)N1[C@H](C)C[C@H](NS(C)(=O)=O)[C@@H]1CO[C@H]1CC[C@@]2(c3ncc(Cl)cn3)C[C@H]2C1 (single isomer, unassigned) [Example 151]
101			CCS(=O)(=O)N[C@H]1C[C@@H](C(F)F)N(C(=O)OC)[C@H]1COC1CCC2(c3ncc(F)cn3)CC2C1 (stereo partly drawn) [Example 117, methyl (2R,3S,5S)-5-(difluoromethyl)-3-(ethylsulfonamido)-2-(((6-(5-fluoropyrimidin-2-yl)bicyclo[4.1.0]heptan-3-yl)oxy)methyl)pyrrolidine-1-carboxylate]
